Data reported in patent US6326139A (priority 1997, dated 2001).
“Also recorded” adds a separate entry of the source. Where two headings read alike, the source gives them in different places.

Experiments:
[1] = test system: myasthenia gravis patients; conditions: in vivo; cited from earlier work
recombinant normal BuChE = target: T1, recombinant normal BuChE (Homo sapiens, UniProt P06276); assay: Inactivation by carbamate inhibitors, normal BuChE; type: biochemical; conditions: for second order rate constant ki for inactivation: recombinant normal BuChE, inhibitor concentration in parentheses in table
T1 construct: made in house; host or cells: Xenopus oocytes injected with in vitro transcribed mRNA
T1 sequence (P06276 29-602): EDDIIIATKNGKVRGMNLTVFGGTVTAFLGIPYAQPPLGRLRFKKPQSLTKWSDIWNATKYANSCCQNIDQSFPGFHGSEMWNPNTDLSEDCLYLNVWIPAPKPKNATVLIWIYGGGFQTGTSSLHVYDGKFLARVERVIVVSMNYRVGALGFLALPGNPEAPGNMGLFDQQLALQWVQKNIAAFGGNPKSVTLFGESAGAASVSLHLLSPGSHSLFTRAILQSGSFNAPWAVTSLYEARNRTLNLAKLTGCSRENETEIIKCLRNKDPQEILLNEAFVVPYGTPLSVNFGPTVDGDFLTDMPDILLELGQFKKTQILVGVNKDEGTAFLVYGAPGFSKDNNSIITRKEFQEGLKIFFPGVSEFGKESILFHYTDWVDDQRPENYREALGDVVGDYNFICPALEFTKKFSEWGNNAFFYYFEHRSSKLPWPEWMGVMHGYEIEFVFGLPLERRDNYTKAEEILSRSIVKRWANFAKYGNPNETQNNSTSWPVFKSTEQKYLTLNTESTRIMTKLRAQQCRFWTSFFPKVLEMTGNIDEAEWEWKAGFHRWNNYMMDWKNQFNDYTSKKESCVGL
Text: (§1) reagent concentration (in parentheses), to calculate second order rate

[2] = test system: serum "atypical" BuChE (G/G); assay: Inactivation of immobilized serum BuChE, "atypical"; type: biochemical, human; conditions: "atypical" serum BuChE
recombinant human AChE = assay: Spontaneous reactivation after complete inhibition, AChE; type: biochemical
[3] = test system: recombinant human BuChE, normal and "atypical"; assay: Spontaneous reactivation after complete inhibition, BuChE; type: biochemical
[4] = test system: H.K., homozygous for the "atypical" allele; conditions: in vivo
AChE (E6) = AChE (E6) (Homo sapiens, UniProt P22303); assay: Inactivation by carbamate inhibitors, AChE E6; type: biochemical; set-up: made in house; host or cells: Xenopus oocytes injected with ACHE DNA; conditions: inhibitor concentration in parentheses in table
Chain of AChE (E6) (P22303 32-614): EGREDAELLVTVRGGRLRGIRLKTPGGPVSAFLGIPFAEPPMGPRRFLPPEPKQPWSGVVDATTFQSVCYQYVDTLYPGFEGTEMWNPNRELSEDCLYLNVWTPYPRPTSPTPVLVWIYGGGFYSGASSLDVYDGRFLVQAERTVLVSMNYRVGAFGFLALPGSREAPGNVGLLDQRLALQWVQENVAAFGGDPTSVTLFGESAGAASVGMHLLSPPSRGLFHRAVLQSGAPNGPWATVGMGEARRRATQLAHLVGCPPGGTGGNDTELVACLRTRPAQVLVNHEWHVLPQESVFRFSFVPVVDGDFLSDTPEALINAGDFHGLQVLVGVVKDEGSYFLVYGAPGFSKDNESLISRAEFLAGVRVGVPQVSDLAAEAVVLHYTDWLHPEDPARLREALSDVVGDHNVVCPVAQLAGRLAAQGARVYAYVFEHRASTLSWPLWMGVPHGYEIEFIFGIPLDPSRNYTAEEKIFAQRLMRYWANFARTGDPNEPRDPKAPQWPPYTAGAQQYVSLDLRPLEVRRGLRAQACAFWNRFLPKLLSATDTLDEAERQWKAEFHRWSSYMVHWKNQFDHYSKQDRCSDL
Text: as §1

AChE (E5) = AChE (E5) (Homo sapiens, UniProt P22303); assay: Inactivation by carbamate inhibitors, AChE E5; type: biochemical; set-up: made in house; host or cells: Xenopus oocytes injected with ACHE DNA; conditions: inhibitor concentration in parentheses in table
Chain of AChE (E5) (P22303-4 with tags, fused parts or gaps limits assumed): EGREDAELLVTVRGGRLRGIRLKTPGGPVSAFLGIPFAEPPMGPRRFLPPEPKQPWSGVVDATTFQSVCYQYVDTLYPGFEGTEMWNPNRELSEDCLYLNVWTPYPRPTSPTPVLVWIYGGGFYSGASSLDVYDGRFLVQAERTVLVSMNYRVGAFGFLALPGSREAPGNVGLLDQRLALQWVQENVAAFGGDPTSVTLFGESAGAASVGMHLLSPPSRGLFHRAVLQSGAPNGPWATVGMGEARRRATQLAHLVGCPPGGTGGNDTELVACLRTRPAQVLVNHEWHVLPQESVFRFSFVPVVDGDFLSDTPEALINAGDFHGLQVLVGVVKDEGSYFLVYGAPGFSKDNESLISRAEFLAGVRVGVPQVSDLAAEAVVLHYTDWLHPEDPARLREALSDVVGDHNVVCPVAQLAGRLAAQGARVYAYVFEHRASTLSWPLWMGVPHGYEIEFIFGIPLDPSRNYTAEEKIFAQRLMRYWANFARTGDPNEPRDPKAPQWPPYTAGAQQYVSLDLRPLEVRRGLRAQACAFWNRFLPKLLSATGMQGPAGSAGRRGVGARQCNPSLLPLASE
Text: as §1

[5] = test system: BuChE in early placenta sections; assay: Cytochemical ChE staining, early placenta; set-up: species or system human; conditions: 10^-5 M
[6] = test system: AChE in term placenta sections; assay: Cytochemical ChE staining, term placenta; set-up: species or system human; conditions: 10^-5 M
"atypical" BuChE [7] = target: T2, "atypical" BuChE (Homo sapiens, UniProt P06276, D98G); conditions: cited from earlier work
Target sequence in this assay (P06276 29-602 D98G limits assumed): as the sequence (P06276 29-602) above, with D70G counted along it

"atypical" BuChE [8] = target: T2, "atypical" BuChE; conditions: cited from earlier work; remark: listed apart in the source
Target sequence in this assay (P06276 29-602 D98G limits assumed): as the sequence (P06276 29-602) above, with D70G counted along it

"atypical" BuChE [9] = target: T2, "atypical" BuChE
Target sequence in this assay (P06276 29-602 D98G): as the sequence (P06276 29-602) above, with D70G counted along it
Protocol: Recombinant normal and "atypical" BuChE were produced in Xenopus oocytes microinjected with in vitro transcribed BuChEmRNAs prepared from the corresponding cDNA types (Neville et al, 1990a).
Free binding sites were blocked with PBS-T buffer (144 mM NaCl, 20 mM Na phosphate pH 7.4, 0.05% Tween 20 and 0.01% Tymerosal) for 60 minutes at 37° C. […] Plates were washed three times with PBS-T prior to use.
Inactivation and reactivation measurements: Antibody-immobilized enzymes were exposed to the tested anti-ChEs in PBS-T buffer for varying times (0.5 to 80 minutes) following an initial determination of catalytic activities. At the noted time points, plates were washed three times with PBS-T and remaining substrate hydrolysis rates were determined (Loewenstein et al., 1993a). Spontaneous reactivation was measured for immobilized recombinant ChEs following complete inhibition, three washes with PBS-T, and subsequent incubation for the noted time and activity determination.

[10] = test system: "atypical" BuChE in H.K.'s serum; assay: Serum BuChE hydrolysis, H.K.'s serum; type: biochemical, human

CC[N+](C)(C)c1cccc(O)c1 [edrophonium]
relief of symptoms [1]: immediate, but brief, relief of the characteristic symptoms

CN(C)C(=O)Oc1ccc[n+](C)c1 [pyridostigmine]
second order rate constant ki for inactivation (recombinant normal BuChE): 31.7 ± 3.3 M⁻¹ s⁻¹
rate of irreversible inactivation versus normal [2]: much slower than its normal counterpart
spontaneous reactivation, % of original activity (recombinant human AChE; AChE, pyridostigmine, FIG. 4): 50%
spontaneous reactivation, % of original activity ([3]; BuChE, pyridostigmine, FIG. 4): 10%
adverse symptoms [4]: insomnia, weight loss and general fatigue, which worsened consistently, and a deep depression
time of gradual improvement following discontinuation [4]: 10 weeks
second order rate constant ki for inactivation (AChE (E6)): 367 ± 150 M⁻¹ s⁻¹
second order rate constant ki for inactivation (AChE (E5)): 417 M⁻¹ s⁻¹

CC(C)NP(=O)(NC(C)C)OP(=O)(NC(C)C)NC(C)C [iso-OMPA, tetraisopropylpyrophosphoramide]
staining of early placenta sections [5]: remained totally unlabeled
staining of term placenta [6]: no reduction in labeling intensity
sensitivity of atypical variant to inhibitors ("atypical" BuChE [7]): much less sensitive

C=CC[N+](C)(C)c1ccc(CCC(=O)CCc2ccc([N+](C)(C)CC=C)cc2)cc1 [BW284C51, 1,5-bis-(4-allyldimethylammoniumphenyl)-pentane-3-one dibromide]
staining of early placenta sections [5]: not early placenta
staining of term placenta [6]: largely suppressed staining in term

CCCCOc1cc(C(=O)NCCN(CC)CC)c2ccccc2n1 [dibucaine]
hydrolysis by the affected ("atypical") enzyme ("atypical" BuChE [8]): inability

CCCCCCCNC(=O)Oc1ccc2c(c1)C1(C)CCN(C)C1N2C (single isomer, unassigned) [N-heptyl physostigmine]
inactivation rate compared with AChE (recombinant normal BuChE; common BuChE): higher than or equal to ACHE
second order rate constant ki for inactivation (recombinant normal BuChE): 183000 ± 50000 M⁻¹ s⁻¹
rate of irreversible inactivation versus normal [2]: much slower than its normal counterpart
spontaneous reactivation, % of original activity (recombinant human AChE; both AChE forms, N-heptyl physostigmine): 5%
spontaneous reactivation, % of original activity ([3]; by 20 minutes, normal and "atypical" BuChE): 10%
inactivation rate of "atypical" BuChE, compared ("atypical" BuChE [9]): considerably lower rates
second order rate constant ki for inactivation (AChE (E6)): 26700 M⁻¹ s⁻¹
second order rate constant ki for inactivation (AChE (E5)): 23300 ± 6700 M⁻¹ s⁻¹

C[N+](C)(C)CCOC(=O)CCC(=O)OCC[N+](C)(C)C [succinylcholine]
hydrolysis of succinylcholine by H.K.'s serum BuChE [10]: totally incapable of hydrolyzing succinylcholine; also recorded: cannot hydrolyze succinylcholine
hydrolysis by the affected ("atypical") enzyme ("atypical" BuChE [8]): unable to hydrolyze succinylcholine
hydrolysis by the affected ("atypical") enzyme ("atypical" BuChE [8]; listed as succinyl choline): unable to hydrolyze succinyl choline; also recorded: inability
